US10696615B2, “Prenylated hydroxystilbenes” (The University of Sydney, priority 2011, dated 2020)

Tests used:
[1] = system: U251; assay: NCI in vitro cancer screen, CNS Cancer; assay type: cell-based, human; conditions: U251
[2] = system: HT29; assay: NCI in vitro cancer screen, Colon Cancer; assay type: cell-based, human; conditions: HT29
[3] = system: OVCAR-4; assay: NCI in vitro cancer screen, Ovarian Cancer; assay type: cell-based, human; conditions: OVCAR-4
[4] = system: HOP-62; assay: NCI in vitro cancer screen, Non-Small Cell Lung Cancer; assay type: cell-based, human; conditions: HOP-62
[5] = system: UACC-62; assay: NCI in vitro cancer screen, Melanoma; assay type: cell-based, human; conditions: UACC-62
[6] = system: SN12C; assay: NCI in vitro cancer screen, Renal Cancer; assay type: cell-based, human
[7] = system: A498; assay: NCI in vitro cancer screen, Renal Cancer; assay type: cell-based, human; conditions: A498
[8] = system: HCT-15; assay: NCI in vitro cancer screen, Colon Cancer; assay type: cell-based, human; conditions: HCT-15
[9] = system: MOLT-4; assay: NCI in vitro cancer screen, Leukemia; assay type: cell-based, human; conditions: MOLT-4
[10] = system: TK-10; assay: NCI in vitro cancer screen, Renal Cancer; assay type: cell-based, human; conditions: TK-10
[11] = system: NCI-H23; assay: NCI in vitro cancer screen, Non-Small Cell Lung Cancer; assay type: cell-based, human; conditions: NCI-H23
[12] = system: NCI-H460; assay: as above; assay type: cell-based, human; conditions: NCI-H460
[13] = system: HOP-92; assay: as above; assay type: cell-based, human; conditions: HOP-92
[14] = system: HL-60 (TB); assay: NCI in vitro cancer screen, Leukemia; assay type: cell-based, human; conditions: HL-60 (TB)
[15] = system: SF-268; assay: NCI in vitro cancer screen, CNS Cancer; assay type: cell-based, human; conditions: SF-268
[16] = system: RPMI-8226; assay: NCI in vitro cancer screen, Leukemia; assay type: cell-based, human; conditions: RPMI-8226
[17] = system: MALME-3M; assay: NCI in vitro cancer screen, Melanoma; assay type: cell-based, human
[18] = system: COLO 205; assay: NCI in vitro cancer screen, Colon Cancer; assay type: cell-based, human; conditions: COLO 205
[19] = system: OVCAR-5; assay: NCI in vitro cancer screen, Ovarian Cancer; assay type: cell-based, human; conditions: OVCAR-5
[20] = system: KM12; assay: NCI in vitro cancer screen, Colon Cancer; assay type: cell-based, human; conditions: KM12
[21] = system: SF-539; assay: NCI in vitro cancer screen, CNS Cancer; assay type: cell-based; conditions: SF-539
[22] = system: SK-MEL-2; assay: NCI in vitro cancer screen, Melanoma; assay type: cell-based, human; conditions: SK-MEL-2
[23] = system: LOX IMVI; assay: NCI in vitro cancer screen, Melanoma; assay type: cell-based, human
[24] = system: UO-31; assay: NCI in vitro cancer screen, Renal Cancer; assay type: cell-based, human; conditions: UO-31
[25] = system: T-47D; assay: NCI in vitro cancer screen, Breast Cancer; assay type: cell-based, human
[26] = system: ADR-RES (NCI/ADR-RES); assay: NCI in vitro cancer screen, Ovarian Cancer; assay type: cell-based, human
[27] = system: PC-3; assay: NCI in vitro cancer screen, Prostate Cancer; assay type: cell-based, human; conditions: PC-3
[28] = system: CAKI-1; assay: NCI in vitro cancer screen, Renal Cancer; assay type: cell-based, human; conditions: CAKI-1
[29] = Homo sapiens, read-out: LC50 (the source's name)

SMILES: CC(C)=CCc1c(O)cc(/C=C/c2ccc(O)c(O)c2)c(CC=C(C)C)c1O [USYDS7, (E)-2,4-di(3-methyl-2-buten-1-yl)-3,3′,4′,5-tetrahydroxystilbene]
- GI50 ([1]; Homo sapiens, U-251): 1490 nM
- CC50 ([1]; Homo sapiens, U-251, read-out: LC50 (the source's name)): 5.74 µM
- TGI [1]: 2.93 µM
- TGI [2]: 10.8 µM
- GI50 ([2]; Homo sapiens, HT-29): 3.64 µM
- CC50 ([2]; Homo sapiens, HT-29, read-out: LC50 (the source's name)): 45.8 µM
- GI50 ([3]; Homo sapiens): 2850 nM
- CC50 [3, 29]: 66.8 µM
- TGI [3]: 11.1 µM
- TGI [4]: 15.0 µM
- GI50 ([4]; Homo sapiens): 3.67 µM
- CC50 [4, 29]: 51.6 µM
- GI50 ([5]; Homo sapiens): 2800 nM
- CC50 [5, 29]: 31.5 µM
- TGI [5]: 7.84 µM
- TGI [6]: 3.16 µM
- GI50 ([6]; Homo sapiens): 1650 nM
- CC50 [6, 29]: 6.03 µM
- TGI [7]: 23.8 µM
- GI50 ([7]; Homo sapiens): 11.1 µM
- CC50 [7, 29]: 50.8 µM
- TGI [8]: 3.78 µM
- GI50 ([8]; Homo sapiens): 1290 nM
- CC50 [8, 29]: 22 µM
- GI50 ([9]; Homo sapiens): 2010 nM
- CC50 [9, 29]: 26.5 µM
- TGI [9]: 5.19 µM
- GI50 ([10]; Homo sapiens): 3.62 µM
- LC50 ([10]; Homo sapiens): 34.3 µM
- TGI [10]: 11.2 µM
- GI50 ([11]; Homo sapiens): 1810 nM
- LC50 ([11]; Homo sapiens): 29.5 µM
- TGI [11]: 5.22 µM
- GI50 ([12]; Homo sapiens): 1640 nM
- CC50 [12, 29]: 6.33 µM
- TGI [12]: 3.22 µM
- TGI [13]: 4.21 µM
- GI50 ([13]; Homo sapiens): 1520 nM
- CC50 [13, 29]: 14.2 µM
- TGI [14]: 5.06 µM
- GI50 ([14]; Homo sapiens): 2390 nM
- CC50 [14, 29]: 13.8 µM
- GI50 ([15]; Homo sapiens): 2260 nM
- CC50 [15, 29]: 22.7 µM
- TGI [15]: 5.47 µM
- GI50 ([16]; Homo sapiens): 2310 nM
- CC50 [16, 29]: 61.1 µM
- TGI [16]: 6.01 µM
- GI50 ([17]; Homo sapiens, Malme-3M): 1970 nM
- CC50 ([17]; Homo sapiens, Malme-3M, read-out: LC50 (the source's name)): 10.4 µM
- TGI ([17]; MALME-3M): 4.46 µM
- TGI [18]: 4.34 µM
- GI50 ([18]; Homo sapiens): 1790 nM
- CC50 [18, 29]: 12.2 µM
- GI50 ([19]; Homo sapiens): 3.04 µM
- CC50 [19, 29]: 39 µM
- TGI [19]: 11.6 µM
- GI50 ([20]; Homo sapiens): 1930 nM
- CC50 [20, 29]: 7.79 µM
- TGI [20]: 3.88 µM
- GI50 ([21]; Homo sapiens): 2210 nM
- CC50 [21, 29]: 35.2 µM
- TGI [21]: 6.14 µM
- GI50 ([22]; Homo sapiens): 3.2 µM
- LC50 ([22]; Homo sapiens): 42.9 µM
- TGI [22]: 7.82 µM
- TGI [23]: 3.41 µM
- GI50 ([23]; Homo sapiens): 1710 nM
- CC50 [23, 29]: 6.81 µM
- GI50 ([24]; Homo sapiens): 1600 nM
- CC50 [24, 29]: 7.46 µM
- TGI [24]: 3.46 µM
- TGI [25]: 6.09 µM
- GI50 ([25]; Homo sapiens, T47D): 1880 nM
- CC50 ([25]; Homo sapiens, T47D, read-out: LC50 (the source's name)): 43.5 µM
- TGI ([26]; ADR-RES): 7.90 µM
- GI50 ([26]; Homo sapiens, NCI/ADR-RES): 2230 nM
- CC50 ([26]; Homo sapiens, NCI/ADR-RES, read-out: LC50 (the source's name)): 42.4 µM
- GI50 ([27]; Homo sapiens): 2020 nM
- CC50 [27, 29]: 11.3 µM
- TGI [27]: 4.57 µM
- TGI [28]: 16.2 µM
- GI50 ([28]; Homo sapiens): 4.24 µM
- CC50 [28, 29]: 49 µM
